This is an account of results in patent publication US6399370B1, “Compositions and methods for use of defensin” (priority 1996, dated 2002).

Bridge positions count the residues as written; N and C are the ends. Ends that are not written are not given here.

In experiment [1] the test system is Escherichia coli. As to the kind of experiment: Broth culture assay of synthetic hBD-1 (optical density). The class given is cell-based. Particulars: 500 μg synthetic hBD-1, 1×10^4 bacterial cells in 200 μl 0.25×LB, 7 hours, background subtracted; untreated 0.127. As for the experimental part: A broth culture assay was also used to assess the antimicrobial activity of hBD-1 directed against Escherichia coli. In this instance, 1×10^4 bacterial cells in 200 μl of 0.25×LB broth were incubated at 37DC in the presence or absence of 500 μg of synthetic hBD-1. After 7 hours, the optical density at 630 nm of the cultures was recorded as a measure of bacterial growth. After subtraction of background due to growth medium, the average optical density of the untreated cultures was 0.127 whereas those containing hBD-1 was 0.004, indicating nearly complete suppression of bacterial growth.

Experiment [2] concerns Pseudomonas aeruginosa. Description: Colony count killing and salt dependence assay of synthetic hBD-1. Type of experiment: cell-based. As for the experimental part:
FIG. 7 is a graph depicting salt sensitivity of hBD-1 antimicrobial activity against Pseudomonas aeruginosa. Synthetic hBD-1 was incubated with 5×10^4 colony forming units of P. aeruginosa in 100 μl of 10 mM phosphate buffer (pH 7.4) and the indicated concentrations of NaCl. Reactions were then incubated at 37° C. for 20 minutes. Serial dilutions were plated and colony counts were performed the following day.
(§1) Essentially, for assays involving Pseudomonas and Escherichia coli, approximately 5×10^4 bacterial cells were exposed to about 50 μg to 500 μg of synthetic hBD-1 in 10 mM phosphate buffer (pH 7.4) in a reaction volume of 100 μl. Samples were incubated at 37° C. for 20 minutes and were then diluted to 1 ml total volume with the corresponding test buffer. A volume of 100 μl of this solution and of two 10-fold serial dilutions thereof, were plated and incubated overnight at 37° C. to facilitate colony formation.
Salt dependence of antibiotic activity was measured essentially as described for α-defensins (Lehrer et al., 1983, supra; Selsted et al., 1984, supra). Briefly, approximately 5×10^4 bacterial cells were exposed to 50 μg of synthetic hBD-1 in 10 mM phosphate buffer (pH 7.4) containing varying concentrations of NaCl in a reaction volume of 100 μl. Reactions were incubated at 37° C. for 20 minutes and were then diluted to 1 ml total volume with the corresponding test buffer. […]

In experiment [3] the test system is E. coli. As to the kind of experiment: Colony count killing assay of synthetic hBD-1. Particulars: synthetic hBD-1, low NaCl. Type of experiment: cell-based, Escherichia coli. As for the experimental part:
as §1

Experiment [4] relates to Escherichia coli. As to the kind of experiment: Antibiotic activity of extracts of 293 cells transfected with hBD-1 cDNA. The class given is cell-based. Particulars: extracts of kidney cells transfected with full length hBD-1 cDNA; mock transfected did not. As for the experimental part: (§2) Human embryonal kidney cells (293) (ATCC CRL 1573) grown in the absence of antibiotics were transfected with the pCMV mammalian reporter vector (Clontech) containing the full length hBD-1 cDNA. Transfected and control mock transfected cells were harvested at 24 to 48 hours postransfection, pelleted by centrifugation, resuspended in 10 mM phosphate buffer (pH 7.4) and lysed by brief sonication. Cell debris was removed by centrifugation and the resulting supernatant was tested for antibiotic activity. Approximately 10^3 or 10^4 bacteria were exposed to cell extracts for 2 hours in 10 mM phosphate buffer (pH 7.4) and cell viability was measured by plating several dilutions and counting colonies the following day.

Experiment [5] has as its system Pseudomonas aeruginosa. The description is as above. The class given is cell-based. Particulars: extracts of kidney cells transfected with full length hBD-1 cDNA; mock transfected did not. As for the experimental part: as §2
Experiment [6] has as its system Staphylococcus aureus. The experiment is described as above. Type of experiment: cell-based. Particulars: extracts of kidney cells transfected with full length hBD-1 cDNA; mock transfected did not. As for the experimental part:
as §2

Experiment [7] has as its system Escherichia coli D31. As to the kind of experiment: Diffusion and liquid broth assays of lysates of mBD-1 transfected cells, incl. salt and pH dependency. The class given is cell-based. As for the experimental part:
(§3) FIG. 14 is a series of graphs depicting the results of antibacterial assays on mBD-1. In FIGS. 14A, 14B and 14C there is shown the results of antibacterial liquid broth coincubation assays. E. coli (FIG. 14A), S. aureus (FIG. 14B) and P. aertiginosa (FIG. 14C) were added at a concentration of 10^3 to 10^4 cfu to 50 μl of lysates obtained from cells transfected with vector containing full length mBD-1 cDNA (empty circles) or cells transfected with the vector alone (filled circles). Each circle shown represents the results of an individual transfection experiment. In FIG. 14D there is shown the salt sensitivity of the antimicrobial activity of mBD-1. Extracts of mBD-1 transfected cells were incubated with 5×10^4 colony-forming units of E. coli D31 in 100 mM phosphate buffer (pH 7.4) and the indicated concentrations of NaCl. After incubation at 37° C. for 1 hour, serial dilutions of bacteria were plated and colonies were counted the following day.
To test the antibacterial activity of mBD-1, lysates obtained from cells transfected with mBD-1 cDNA positioned in a transfection vector were analyzed. A clinical isolate of Staphylococcus aureus, Escherichia coli D31 (Steiner et al., 1981, Nature 292:246-248), and a clinical isolate of Pseudomonas aeruginosa were used as test organisms in both diffusion assays and liquid broth assays. […]
(§4) Antibacterial liquid broth assays were performed as previously described for α-defensins (Steiner et al., 1981, Nature 292:246-248). […] Cell viability was measured by plating several dilutions and counting colonies the following day. […]
To analyze the salt dependency of the activity of mBD-1 against E. coli D31, NaCl was added to aliquots of the agarose solution to obtain final concentrations of NaCl of 50 mM, 100 mM, 200 mM and 500 mM. The exact concentration of NaCl in the solutions was measured using Na or Cl sensitive electrodes (Microelectrodes). […]

The subject of experiment [8] is Pseudomonas aeruginosa (clinical isolate). Description: Diffusion and liquid broth assays of lysates of mBD-1 transfected cells. The class given is cell-based. Particulars: lysates of SW 13 cells transfected with mBD-1 cDNA. As for the experimental part: as §3
(§5) To test the antibacterial activity of mBD-1, lysates obtained from cells transfected with mBD-1 cDNA positioned in a transfection vector were analyzed. […]
as §4

The subject of experiment [9] is Staphylococcus aureus (clinical isolate). The description is as above. Type of experiment: cell-based. Particulars: lysates of SW 13 cells transfected with mBD-1 cDNA. As for the experimental part: as §3, §5, §4

Regarding “hBD-1: human β-defensin 1; synthetic mature peptide with disulfide bridges Cys5-Cys34, Cys12-Cys27, Cys17-Cys35; also tested as extracts of cDNA-transfected cells (DHYNCVSSGGQCLYSACPIFTKIQGTCYRGKAKCCK; disulfide 12-27, 17-35, 5-34; UniProt P60022 33-68, looked up)”, the “average optical density at 630 nm of cultures (bacterial growth)” value in [1] was 0.004. Besides, the “hBD-1 concentrations at which bacterial killing was observed” value in experiment [2] (low NaCl, 10 mM phosphate buffer pH 7.4, 37° C., 20 minutes) lay in the range of 60 to 500 µg/mL. In addition, the bactericidal activity result was “potent bactericidal activity” in experiment [2] (synthetic hBD-1, low NaCl) and “potent bactericidal activity” in [3]. Moreover, the “antibiotic activity of transfected cell extracts” value in [4], in experiment [5] and in experiment [6] was “exhibited antibiotic activity” in each case.

B1: mBD-1: murine β defensin, tested as lysates of SW 13 cells transfected with full length mBD-1 cDNA (protein)
chain: MKTHYFLLVMICFLFSQMEPGVGILTSLGRRTDQYKCLQHGGFCLRSSCPSNTKLQGTCKPDKPNCCKS
Turning to B1, the “antimicrobial activity of lysates” value was “active” in [7] (lysates of SW 13 cells transfected with mBD-1 cDNA, diffusion and liquid broth assays); “active” in experiment [8]; “active” in experiment [9]. Also, the “antimicrobial activity in acidic pH” value in experiment [7] (lysates of mBD-1 transfected cells, acidic pH) is “substantially diminished and lost”. The “antimicrobial activity in high concentrations of NaCl” value in [7] (lysates of mBD-1 transfected cells, high NaCl) is “substantially diminished and lost”.
